According to patent US11440900B2, “Agricultural chemicals” (GLOBACHEM NV, priority 2018, dated 2022):

What was measured:
Type in all cases: cell-based
Alternaria alternata = experiment: Fungicidal activity screen in amended agar, 96 well plates, Alternaria alternata; conditions: fungal growth vs DMSO control, Medium N agar, 1,000 spores/ml, 20, 2, 0.2 and 0.02 ppm, 18° C., assessed after 3 to 4 days, read-out: Alternaria EC50 ranking
Procedure: (§1) Compounds were screened in 96 well plates with 10 compounds per plate. Each compound was screened using agar amended to 20, 2, 0.2 and 0.02 ppm of the test material. Proline at 50 and 10 ppm and 0.2% DMSO were used respectively as positive and negative controls. Each test concentration and standard were tested twice on a plate.
(§2) Compounds were screened against the following three fungal pathogens—Botrytis cinerea, Alternaria alternata and Zymoseptoria tritici. The agar used in the test varied depending on the pathogen with Medium N used for B. cinerea and A. alternata and 1% potato dextrose agar for Z. tritici. For each pathogen sufficient spores were added to the appropriate agar to give 1,000 spores/ml agar of A. alternata, 5,000 spores/ml agar of B. cinerea and 10,000 spores/ml agar of Z. tritici.
(§3) A ×10 stock solution in 2% DMSO was produced for each dose i.e. 200, 20, 2 and 0.2 ppm, and 10 μl of this added to the appropriate wells on the plate. An equivalent amount of 2% DMSO and Proline stock at 500 and 100 ppm were added for the controls. To each well 90 μl of the appropriate agar spore suspension was added to give the final well concentrations outlined in the first paragraph.
(§4) Plates were incubated at room temperature (18° C.) and assessed after • a) 3 to 4 days A. alternata and B. cinerea • b) 7 days for Z. tritici
(§5) The amount of fungal growth in each well was compared to the DMSO controls and scored according to the following key • 0—no growth (100% control) • 1—growth reduced by 75% compared to DMSO control (25% growth) • 2—growth reduced by 50% compared to DMSO control (50% growth) • 3—growth reduced by 25% compared to DMSO control growth (75% growth) • 4—no reduction in growth compared to DMSO control growth (100% growth)
(§6) Those numbers were then used to give an EC50. The ranking in the table is: • A) EC50<20 ppm, B) EC50≥20ppm

Botrytis cinerea = experiment: Fungicidal activity screen in amended agar, 96 well plates, Botrytis cinerea; conditions: fungal growth vs DMSO control, Medium N agar, 5,000 spores/ml, 20, 2, 0.2 and 0.02 ppm, 18° C., assessed after 3 to 4 days, read-out: Botrytis EC50 ranking
Procedure: as §1, §2, §3, §4, §5, §6

Zymoseptoria tritici = experiment: Fungicidal activity screen in amended agar, 96 well plates, Zymoseptoria tritici; conditions: 168 h, fungal growth vs DMSO control, 1% potato dextrose agar, 10,000 spores/ml, 20, 2, 0.2 and 0.02 ppm, 18° C., assessed after 7 days, read-out: Zymoseptoria EC50 ranking
Procedure: as §1, §2, §3, §4, §5, §6

| SMILES | EC50 (Alternaria alternata) | EC50 (Botrytis cinerea) | EC50 (Zymoseptoria tritici) |
| --- | --- | --- | --- |
| Cc1ncnc(-n2cnc3cc(F)cc(F)c32)c1-c1ccc(F)cc1Cl [Example 1, 1-(5-(2-Chloro-4-fluorophenyl)-6-methylpyrimidin-4-yl)-5,7-difluoro-1H-benzo[d]imidazole] | < 20 µg/mL | < 20 µg/mL | < 20 µg/mL |
| COc1ccc(-c2c(C)ncnc2-n2cnc3cc(F)cc(F)c32)c(Cl)c1 [Example 2] | < 20 µg/mL | < 20 µg/mL | < 20 µg/mL |
| Cc1ncnc(-n2cnc3cc(F)cc(F)c32)c1-c1ccccc1Cl [Example 3] | < 20 µg/mL | < 20 µg/mL | < 20 µg/mL |
| Cc1ccnc(-n2cnc3cc(F)cc(F)c32)c1-c1ccc(F)cc1Cl [Example 4] | < 20 µg/mL | < 20 µg/mL | < 20 µg/mL |
| Fc1ccc(-c2c(-n3cnc4cc(F)cc(F)c43)ccnc2Cl)c(Cl)c1 [Example 5] | < 20 µg/mL | < 20 µg/mL | < 20 µg/mL |
| Cc1cccc(-n2cnc3cc(F)cc(F)c32)c1-c1ccc(F)cc1Cl [Example 6] | < 20 µg/mL | < 20 µg/mL | < 20 µg/mL |
| COc1cc(F)c(-c2c(C)cccc2-n2cnc3cc(F)cc(F)c32)c(F)c1 [Example 7] | < 20 µg/mL | < 20 µg/mL | < 20 µg/mL |
| Cc1cccc(-n2cnc3ccccc32)c1-c1ccc(F)cc1Cl [Example 8] | < 20 µg/mL | < 20 µg/mL | < 20 µg/mL |
| Cc1cccc(-n2cnc3cc(Cl)ccc32)c1-c1ccc(F)cc1Cl [Example 9] | < 20 µg/mL | < 20 µg/mL | < 20 µg/mL |
| Cc1ccc2c(c1)ncn2-c1cccc(C)c1-c1ccc(F)cc1Cl [Example 10] | < 20 µg/mL | < 20 µg/mL | < 20 µg/mL |
| COc1ccc(-c2c(C)ncnc2-n2cnc3cc(Cl)cc(F)c32)c(Cl)c1 [Example 11] | < 20 µg/mL | < 20 µg/mL | < 20 µg/mL |
| Cc1ncnc(-n2cnc3cc(Cl)cc(F)c32)c1-c1ccc(F)cc1Cl [Example 12] | < 20 µg/mL | < 20 µg/mL | < 20 µg/mL |
| COc1ccc(-c2c(-n3cnc4cc(Cl)cc(F)c43)ccnc2Cl)c(Cl)c1 [Example 13] | < 20 µg/mL | < 20 µg/mL | < 20 µg/mL |
| Fc1ccc(-c2c(-n3cnc4cc(Cl)cc(F)c43)ccnc2Cl)c(Cl)c1 [Example 14] | < 20 µg/mL | < 20 µg/mL | < 20 µg/mL |
| C#CCOc1ccc2c(c1)ncn2-c1ccnc(Cl)c1-c1ccc(F)cc1Cl [Example 15] | < 20 µg/mL | < 20 µg/mL | < 20 µg/mL |
| Cc1ccnc(-n2cnc3cc(Cl)cc(F)c32)c1-c1ccc(F)cc1Cl [Example 16] | < 20 µg/mL | < 20 µg/mL | < 20 µg/mL |
| C#CCOc1ccc2c(c1)ncn2-c1nccc(C)c1-c1ccc(F)cc1Cl [Example 17] | < 20 µg/mL | < 20 µg/mL | < 20 µg/mL |
| COc1ccc(-c2c(-n3cnc4cc(Br)cc(F)c43)ccnc2Cl)c(Cl)c1 [Example 18] | < 20 µg/mL | < 20 µg/mL | < 20 µg/mL |
| COc1cc(F)c(-c2c(C)ncnc2-n2cnc3cc(Cl)cc(F)c32)c(F)c1 [Example 19] | < 20 µg/mL | < 20 µg/mL | < 20 µg/mL |
| COc1ccc(-c2c(-n3nnc4cc(Cl)cc(F)c43)ccnc2Cl)c(Cl)c1 [Example 20, 5-Chloro-1-(2-chloro-3-(2-chloro-4-methoxyphenyl)pyridin-4-yl)-7-fluoro-1H-benzo[d][1,2,3]triazole] | < 20 µg/mL | < 20 µg/mL | < 20 µg/mL |
| Cc1ncnc(-n2nnc3cc(Cl)cc(F)c32)c1-c1ccc(F)cc1Cl [Example 21] | ≥ 20 µg/mL | < 20 µg/mL | < 20 µg/mL |
| COc1ccc(-c2c(C)ncnc2-n2nnc3cc(Cl)cc(F)c32)c(Cl)c1 [Example 22] | ≥ 20 µg/mL | < 20 µg/mL | < 20 µg/mL |
| Cc1ccnc(-n2nnc3cc(Cl)cc(F)c32)c1-c1ccc(F)cc1Cl [Example 23] | < 20 µg/mL | < 20 µg/mL | < 20 µg/mL |
| COc1ccc(-c2c(C)ccnc2-n2nnc3cc(Cl)cc(F)c32)c(Cl)c1 [Example 24] | ≥ 20 µg/mL | < 20 µg/mL | < 20 µg/mL |
| Fc1ccc(-c2c(-n3nnc4cc(Cl)cc(F)c43)ccnc2Cl)c(Cl)c1 [Example 25] | < 20 µg/mL | < 20 µg/mL | < 20 µg/mL |
| COc1ccc(-c2c(-n3nnc4cc(Br)cc(F)c43)ccnc2Cl)c(Cl)c1 [Example 26] | ≥ 20 µg/mL | < 20 µg/mL | ≥ 20 µg/mL |
| Fc1ccc(-c2c(-n3cnc4cc(F)ccc43)cnnc2Cl)c(Cl)c1 [Example 27] | ≥ 20 µg/mL | < 20 µg/mL | < 20 µg/mL |
